Reference: ChEMBL document CHEMBL1641458, “A journey from benzanilides to dithiobenzanilides: Synthesis of selective spasmolytic compounds” (Bioorg Med Chem, 2011)

What was measured:
[1] = test system: Aorta; assay: tissue or blood; format: functional, tissue-based; details: Cavia porcellus, 0.75 h
[2] = Antispasmodic activity in guinea pig arteria pulmonalis ring assessed as inhibition of 60 mM KCl-induced contraction after 45 mins; format: functional, Cavia porcellus
[3] = test system: Ileum; assay: tissue or blood; format: functional, tissue-based; details: Cavia porcellus, 0.75 h

Measured: IC50

COc1cc(C(=S)Nc2cccc(NC(=S)c3cc(OC)c(OC)c(OC)c3)c2)cc(OC)c1OC
> 100 µM: all assays above
